{"source": "patent US10576039B2", "about": "“Ophthalmic formulation comprising citicoline carried by liposome for the treatment of glaucoma” (Omikron Italia S.r.l., priority 2016, dated 2020)", "key": {"[1]": {"experiment": "Citicoline in vitreous humour and blood by HPLC after topical instillation of liposome solution", "assay_type": "in vivo, male mice of Wistar-Kyoto strain", "excerpt": "For the experimental group 12 animals were used for an adequate statistical management of the results (average, standard deviation and significance).\nThe used number of animals, following statistical evaluation, represents the minimum number therefrom it is possible to obtain significant data. In the study male mice of Wistar-Kyoto strain were used according to previous experiments performed by the research group.\nThe animals were kept and manipulated in a structure suitable for keeping the animals under optimum conditions (temperature, humidity, ventilation, hygienic conditions). In the study a formulation in solution for ophthalmic use was utilized constituted by […] liposomes including 2% citicoline sodium salt. […]\nMoreover on each animal an endocardial blood sample was taken after total anaesthesia both before and after treatment, just before being sacrificed, by using a test tube with EDTA; on such sample, for each animal, the blood count and citicoline presence were determined. […]\nAfter extraction and subsequent centrifugation at 13,000 rpm for 5 minutes at 5° C. the supernatant was taken and injected into a HPLC system equipped with a ultraviolet detector Diode Array and chromatographic column C18—Kromasil 250×4.6 mm with 5-μm particles. Of course, all samples, even the checks, were subjected to the same kind of treatment before being analysed in HPLC. […]"}, "[2]": {"conditions": "taken orally, cited from earlier work"}}, "data": [{"smiles": "C[N+](C)(C)CCOP(=O)(O)OP(=O)([O-])OC[C@H]1O[C@@H](n2ccc(N)nc2=O)[C@H](O)[C@@H]1O", "note": "[Citicoline, cytidine-5′-diphosphocholine]", "values": [{"measurement": "vitreous humour citicoline as % of the amount applied topically", "setting": "[1]; eyes treated topically with liposome solution for three days", "value": 13, "unit": "%"}, {"measurement": "presence/penetration of citicoline in the vitreous humour (in words)", "setting": "[1]; topical treatment, HPLC elution profile, comparison with citicoline administered in solution (Parisi et al., 2015; Roberti et al., 2015)", "value": "present in high concentrations"}, {"measurement": "time of plasma peak after ingestion", "setting": "[2]; first peak", "value": 1, "unit": "h"}, {"measurement": "time of larger second plasma peak", "setting": "[2]; later peak", "value": 24, "unit": "h"}, {"measurement": "fraction excreted in the feces", "setting": "[2]", "value": "less than 1%"}]}]}
